From patent US11739074B2, “Ras inhibitors” (Revolution Medicines, Inc., priority 2019, dated 2023)
Like-named read-outs stand apart in the source and are kept apart here.

Key:
[1] = system: AsPC-1 (K-Ras G12D); experiment: Potency assay: pERK in AsPC-1 cells; assay type: cell-based; details: Homo sapiens
[2] = system: AsPC-1 (K-Ras G12D); experiment: CellTiter-Glo cell viability assay, AsPC-1; assay type: cell-based; details: Homo sapiens, ASPC1, 120 h
Experimental: Determination of Cell Viability in RAS Mutant Cancer Cell Lines
Protocol: CellTiter-Glo® Cell Viability Assay
Note—The following protocol describes a procedure for monitoring cell viability of K-Ras mutant cancer cell lines in response to a compound of the invention. Other RAS isoforms may be employed, though the number of cells to be seeded will vary based on cell line used.
Test compounds (132.5 nL) were directly dispensed into the assay plates containing cells. […] On day 5, assay plates and their contents were equilibrated to room temperature for approximately 30 minutes. […] Luminescence was measured using the PerkinElmer Enspire. Data were normalized by the following: (Sample signal/Avg. DMSO)*100. The data were fit using a four-parameter logistic fit.

[3] = ASPC1, AsPC-1 cells, K-Ras G12D, read-out: pERK EC50 (AsPC-1 KRAS G12D)
[4] = AsPC-1, K-Ras G12D, 5-day treatment, read-out: AsPC-1 Cell Viability IC50
[5] = ASPC1, read-out: pERK EC50 (AsPC-1 KRAS G12D)
[6] = read-out: AsPC-1 Cell Viability IC50, AsPC-1, K-Ras G12D, 5-day treatment

Row | Structure (SMILES) | EC50 [1, 3] | IC50 [2, 4] | EC50 [1, 5] | IC50 [2, 6]
1 | CCn1c(-c2cccnc2[C@H](C)OC)c2c3cc(ccc31)-c1cc(O)cc(c1)C[C@H](NC(=O)[C@H](C(C)C)N(C)C(=O)c1ccc(NC(=O)[C@H]3CN3)cn1)C(=O)N1CCC[C@H](N1)C(=O)OCC(C)(C)C2 [Compound 127] | < 5 µM | > 10 µM |  | 
2 | CCn1c(-c2cccnc2[C@H](C)OC)c2c3cc(ccc31)-c1cc(O)cc(c1)C[C@H](NC(=O)[C@H](C(C)C)N1CC[C@@H](NC(=O)[C@@H]3CN3)C1=O)C(=O)N1CCC[C@H](N1)C(=O)OCC(C)(C)C2 [Compound 129] | < 5 µM | 1 to 10 µM |  | 
3 | CCn1c(-c2cccnc2[C@H](C)OC)c2c3cc(ccc31)-c1cc(O)cc(c1)C[C@H](NC(=O)[C@H](C(C)C)N1CC[C@@]3(CCN(C[C@@H]4CN4)C3)C1=O)C(=O)N1CCC[C@H](N1)C(=O)OCC(C)(C)C2 [Compound 138] | < 5 µM | > 10 µM |  | 
4 | CCn1c(-c2cccnc2[C@H](C)OC)c2c3cc(ccc31)-c1cc(O)cc(c1)C[C@H](NC(=O)[C@H](C(C)C)N(C)C(=O)CNC(=O)[C@H]1CN1)C(=O)N1CCC[C@H](N1)C(=O)OCC(C)(C)C2 [Compound 140] |  |  | < 5 µM | 1 to 10 µM
5 | CCn1c(-c2cccnc2[C@H](C)OC)c2c3cc(ccc31)-c1cc(O)cc(c1)C[C@H](NC(=O)[C@H](C(C)C)N(C)C(=O)CNC(=O)[C@@H]1CN1)C(=O)N1CCC[C@H](N1)C(=O)OCC(C)(C)C2 [Compound 147] |  |  | < 5 µM | 1 to 10 µM
6 | CCn1c(-c2cccnc2[C@H](C)OC)c2c3cc(ccc31)-c1cc(O)cc(c1)C[C@H](NC(=O)[C@H](C(C)C)N1CC[C@@]3(CCN(C(=O)[C@H]4CN4)C3)C1=O)C(=O)N1CCC[C@H](N1)C(=O)OCC(C)(C)C2 [Compound 149] | < 5 µM | 1 to 10 µM |  | 
7 | CCn1c(-c2cccnc2[C@H](C)OC)c2c3cc(ccc31)-c1cc(O)cc(c1)C[C@H](NC(=O)[C@H](C(C)C)N(C)C(=O)[C@H]1CCCN1C(=O)[C@@H]1CN1)C(=O)N1CCC[C@H](N1)C(=O)OCC(C)(C)C2 [Compound 151] |  |  | < 5 µM | 1 to 10 µM
8 | CCn1c(-c2cccnc2[C@H](C)OC)c2c3cc(ccc31)-c1cc(O)cc(c1)C[C@H](NC(=O)[C@H](C(C)C)N(C)C(=O)[C@H]1CCCN1C(=O)[C@H]1CN1)C(=O)N1CCC[C@H](N1)C(=O)OCC(C)(C)C2 [Compound 152] |  |  | < 5 µM | 1 to 10 µM
9 | CCn1c(-c2cccnc2[C@H](C)OC)c2c3cc(ccc31)-c1cc(O)cc(c1)C[C@H](NC(=O)[C@H](C(C)C)N(C)C(=O)[C@H]1CC[C@@H](C)N1C(=O)[C@@H]1CN1)C(=O)N1CCC[C@H](N1)C(=O)OCC(C)(C)C2 [Compound 153] |  |  | < 5 µM | 1 to 10 µM
10 | CCn1c(-c2cccnc2[C@H](C)OC)c2c3cc(ccc31)-c1cc(O)cc(c1)C[C@H](NC(=O)[C@H](C(C)C)N(C)C(=O)[C@H]1CC[C@@H](C)N1C(=O)[C@H]1CN1)C(=O)N1CCC[C@H](N1)C(=O)OCC(C)(C)C2 [Compound 154] |  |  | < 5 µM | 1 to 10 µM
11 | CCn1c(-c2cccnc2[C@H](C)OC)c2c3cc(ccc31)-c1cc(O)cc(c1)C[C@H](NC(=O)[C@H](C(C)C)N(C)C(=O)[C@H]1CCN1C(=O)[C@@H]1CN1)C(=O)N1CCC[C@H](N1)C(=O)OCC(C)(C)C2 [Compound 157] | < 5 µM | 1 to 10 µM |  | 
12 | CCn1c(-c2cccnc2[C@H](C)OC)c2c3cc(ccc31)-c1cc(O)cc(c1)C[C@H](NC(=O)[C@H](C(C)C)N(C)C(=O)[C@H]1CCN1C(=O)[C@H]1CN1)C(=O)N1CCC[C@H](N1)C(=O)OCC(C)(C)C2 [Compound 158] | < 5 µM | 1 to 10 µM |  | 
13 | CCn1c(-c2cccnc2[C@H](C)OC)c2c3cc(ccc31)-c1cc(O)cc(c1)C[C@H](NC(=O)[C@H](C(C)C)N(C)C(=O)CN(C)C(=O)[C@H]1CN1CCO)C(=O)N1CCC[C@H](N1)C(=O)OCC(C)(C)C2 (some centres unmarked) [Compound 161] |  |  | < 5 µM | 1 to 10 µM
14 | CCn1c(-c2cccnc2[C@H](C)OC)c2c3cc(ccc31)-c1cc(O)cc(c1)C[C@H](NC(=O)[C@H](C(C)C)N(C)C(=O)CN(C)C(=O)[C@@H]1CN1CCO)C(=O)N1CCC[C@H](N1)C(=O)OCC(C)(C)C2 (some centres unmarked) [Compound 162] |  |  | < 5 µM | 1 to 10 µM
15 | CCn1c(-c2cccnc2[C@H](C)OC)c2c3cc(ccc31)-c1cc(O)cc(c1)C[C@H](NC(=O)[C@H](C(C)C)N(C)C(=O)C13CC(CN1C(=O)[C@@H]1CN1)C3)C(=O)N1CCC[C@H](N1)C(=O)OCC(C)(C)C2 [Compound 163] | < 5 µM | 1 to 10 µM |  | 
16 | CCn1c(-c2cccnc2[C@H](C)OC)c2c3cc(ccc31)-c1cc(O)cc(c1)C[C@H](NC(=O)[C@H](C(C)C)N(C)C(=O)C13CC(CN1C(=O)[C@H]1CN1)C3)C(=O)N1CCC[C@H](N1)C(=O)OCC(C)(C)C2 [Compound 164] | < 5 µM | 1 to 10 µM |  | 
17 | CCn1c(-c2cccnc2[C@H](C)OC)c2c3cc(ccc31)-c1cc(O)cc(c1)C[C@H](NC(=O)[C@H](C(C)C)N(C)C(=O)[C@]13C[C@H]1CCN3C(=O)[C@@H]1CN1)C(=O)N1CCC[C@H](N1)C(=O)OCC(C)(C)C2 [Compound 166] | < 5 µM | 1 to 10 µM |  | 
18 | CCn1c(-c2cccnc2[C@H](C)OC)c2c3cc(ccc31)-c1cc(O)cc(c1)C[C@H](NC(=O)[C@H](C(C)C)N(C)C(=O)[C@H]1C[C@H](NC(=O)[C@@H]3CN3)C1)C(=O)N1CCC[C@H](N1)C(=O)OCC(C)(C)C2 [Compound 167] | < 5 µM | 1 to 10 µM |  | 
19 | CCn1c(-c2cccnc2[C@H](C)OC)c2c3cc(ccc31)-c1cc(O)cc(c1)C[C@H](NC(=O)[C@H](C(C)C)N(C)C(=O)[C@@H]1CCN(C(=O)[C@@H]3CN3)C1)C(=O)N1CCC[C@H](N1)C(=O)OCC(C)(C)C2 [Compound 172] | < 5 µM | 1 to 10 µM |  | 
20 | CCn1c(-c2cccnc2[C@H](C)OC)c2c3cc(ccc31)-c1cc(O)cc(c1)C[C@H](NC(=O)[C@H](C(C)C)N(C)C(=O)N1CCCN(C(=O)[C@@H]3CN3)CC1)C(=O)N1CCC[C@H](N1)C(=O)OCC(C)(C)C2 [Compound 173] | < 5 µM | 1 to 10 µM |  | 
21 | CCn1c(-c2cccnc2[C@H](C)OC)c2c3cc(ccc31)-c1cc(O)cc(c1)C[C@H](NC(=O)[C@H](C(C)C)N(C)C(=O)CC1CN(C(=O)[C@@H]3CN3)C1)C(=O)N1CCC[C@H](N1)C(=O)OCC(C)(C)C2 [Compound 178] | < 5 µM | > 10 µM |  | 
22 | CCn1c(-c2cccnc2[C@H](C)OC)c2c3cc(ccc31)-c1cc(O)cc(c1)C[C@H](NC(=O)[C@H](C(C)C)N(C)C(=O)CC1CN(C(=O)[C@H]3CN3)C1)C(=O)N1CCC[C@H](N1)C(=O)OCC(C)(C)C2 [Compound 179] | < 5 µM | > 10 µM |  | 
23 | CCn1c(-c2cccnc2[C@H](C)OC)c2c3cc(ccc31)-c1cc(O)cc(c1)C[C@H](NC(=O)[C@H](C(C)C)N(C)C(=O)[C@H]1C[C@H](NC(=O)[C@H]3CN3)C1)C(=O)N1CCC[C@H](N1)C(=O)OCC(C)(C)C2 [Compound 182] | < 5 µM | > 10 µM |  | 
24 | CCn1c(-c2cccnc2[C@H](C)OC)c2c3cc(ccc31)-c1cc(O)cc(c1)C[C@H](NC(=O)[C@H](C(C)C)N(C)C(=O)N1CCN(C(=O)[C@H]3CN3)CC1=O)C(=O)N1CCC[C@H](N1)C(=O)OCC(C)(C)C2 [Compound 183] | < 5 µM | > 10 µM |  | 
25 | CCn1c(-c2cccnc2[C@H](C)OC)c2c3cc(ccc31)-c1cc(O)cc(c1)C[C@H](NC(=O)[C@H](C(C)C)N(C)C(=O)[C@]1(F)CCN(C(=O)[C@@H]3CN3)C1)C(=O)N1CCC[C@H](N1)C(=O)OCC(C)(C)C2 [Compound 184] | < 5 µM | 1 to 10 µM |  | 
